Test results: patent publication US11452717B2, “Small molecule activators of nicotinamide phosphoribosyltransferase (NAMPT) and uses thereof” (Sanford Burnham Prebys Medical Discovery Institute, priority 2017, dated 2022)

Molecular target: NAMPT enzyme (Homo sapiens (Human), UniProt P43490)
Experiment: Enzyme Assay and NMN Detection (NAMPT reaction, fluorescence detection of NMN)
Type: biochemical
Conditions: Table B-1; NAMPT activation, NMN formation
Method in brief: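 Reaction in 50 mM HEPES pH 7.5, 5 mM MgCl2, 0.1% Prionex, 0.005% Tween 20, 1 mM TCEP at room temperature, with 16 nM NAMPT, 120 uM ATP, 5 uM nicotinamide, 6.25 uM PRPP, 0.04 U/ml pyrophosphatase for 2 h. Stopped with acetophenone/KOH then formic acid; NMN quantified by fluorescence (ex380/em460) against calibration curve.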

NAMPT enzyme, sequence (P43490 whole entry, species assumed): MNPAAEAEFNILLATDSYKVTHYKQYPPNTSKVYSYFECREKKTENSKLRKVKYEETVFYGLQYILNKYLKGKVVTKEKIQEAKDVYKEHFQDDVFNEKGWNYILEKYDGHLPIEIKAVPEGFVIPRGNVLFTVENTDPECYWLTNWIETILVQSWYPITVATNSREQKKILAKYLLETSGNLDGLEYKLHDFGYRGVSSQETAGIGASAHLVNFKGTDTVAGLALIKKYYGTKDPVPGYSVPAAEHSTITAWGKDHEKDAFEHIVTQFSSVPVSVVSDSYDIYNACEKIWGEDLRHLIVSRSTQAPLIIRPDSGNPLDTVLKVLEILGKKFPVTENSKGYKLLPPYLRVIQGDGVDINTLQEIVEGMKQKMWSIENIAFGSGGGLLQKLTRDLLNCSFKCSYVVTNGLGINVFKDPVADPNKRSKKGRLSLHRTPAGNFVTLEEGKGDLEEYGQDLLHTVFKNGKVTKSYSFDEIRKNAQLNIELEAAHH

`O=C(NCc1cn[nH]c1)Nc1ccc(C(=O)Nc2cccc(Cl)c2)cc1` [N-(3-Chloro-phenyl)-4-[3-(1H-pyrazol-4-ylmethyl)-ureido]-benzamide] was tested. Which EC50 did it give?
Its EC50 is 100 to 2000 nM.

For `COc1cccc(CNS(=O)(=O)c2ccc(NC(=O)NCc3cn[nH]c3)cc2)c1` [N-(3-Methoxy-benzyl)-4-[3-(1H-pyrazol-4-ylmethyl)-ureido]-benzenesulfonamide], which EC50 is on record?
The EC50 was 100 to 2000 nM.

How did the EC50 turn out when `O=C(NCc1cn[nH]c1)Nc1ccc(NS(=O)(=O)Cc2ccccc2)cc1` [N-(4-(3-((1H-pyrazol-4-yl)methyl)ureido)phenyl)-1-phenylmethanesulfonamide] was run?
Its EC50 is < 100 nM.

`O=C(NCc1cn[nH]c1)Nc1ccc(S(=O)(=O)NCc2ccc(Cl)cc2)cc1` [N-(4-Chloro-benzyl)-4-[3-(1H-pyrazol-4-ylmethyl)-ureido]-benzenesulfonamide] was tested. Which EC50 did it give?
Its EC50 is 100 to 2000 nM.

How did the EC50 turn out when `COc1ccc(CNS(=O)(=O)c2ccc(NC(=O)NCc3cn[nH]c3)cc2)cc1` [N-(4-Methoxy-benzyl)-4-[3-(1H-pyrazol-4-ylmethyl)-ureido]-benzenesulfonamide] was run?
Its EC50 is < 100 nM.

Same assay, conditions: Table B-2; NAMPT activation, NMN formation

For `O=C(NCc1ccncc1)Nc1ccc(C(=O)Nc2ccccc2F)cc1` [N-(2-fluorophenyl)-4-(3-(pyridin-4-ylmethyl)ureido)benzamide], which EC50 is on record?
The EC50 was 100 to 2000 nM.

`O=C(NCc1ccncc1)Nc1ccc(C(=O)NCCO)cc1` [N-(2-hydroxyethyl)-4-(3-(pyridin-4-ylmethyl)ureido)benzamide] was tested. Which EC50 did it give?
Its EC50 is > 20000 nM.

`COc1ccccc1CNC(=O)c1ccc(NC(=O)NCc2ccncc2)cc1` [N-(2-methoxybenzyl)-4-(3-(pyridin-4-ylmethyl)ureido)benzamide] was tested. Which EC50 did it give?
Its EC50 is > 20000 nM.

Which EC50 does the source give for `COc1ccccc1CNS(=O)(=O)c1ccc(NC(=O)NCc2ccncc2)cc1` [N-(2-methoxybenzyl)-4-(3-(pyridin-4-ylmethyl)ureido)benzenesulfonamide] here?
Its EC50 is 100 to 2000 nM.

How did the EC50 turn out when `COCCNC(=O)c1ccc(NC(=O)NCc2ccncc2)cc1` [N-(2-methoxyethyl)-4-(3-(pyridin-4-ylmethyl)ureido)benzamide] was run?
Its EC50 is 2000 to 5000 nM.

How did the EC50 turn out when `COc1ccccc1NC(=O)c1ccc(NC(=O)NCc2ccncc2)cc1` [N-(2-methoxyphenyl)-4-(3-(pyridin-4-ylmethyl)ureido)benzamide] was run?
The EC50 was 100 to 2000 nM.

For `Cc1ccccc1CNC(=O)c1ccc(NC(=O)NCc2ccncc2)cc1` [N-(2-methylbenzyl)-4-(3-(pyridin-4-ylmethyl)ureido)benzamide], which EC50 is on record?
The EC50 was 100 to 2000 nM.

For `O=C(NCc1ccncc1)Nc1ccc(C(=O)NCCN2CCOCC2)cc1` [N-(2-morpholinoethyl)-4-(3-(pyridin-4-ylmethyl)ureido)benzamide], which EC50 is on record?
The EC50 was 100 to 2000 nM.

For `COc1ccc(NC(=O)c2ccc(NC(=O)NCc3ccncc3)cc2)cc1OC` [N-(3,4-dimethoxyphenyl)-4-(3-(pyridin-4-ylmethyl)ureido)benzamide], which EC50 is on record?
The EC50 was 100 to 2000 nM.

With `Cc1ccc(NC(=O)c2ccc(NC(=O)NCc3ccncc3)cc2)cc1C` [N-(3,4-dimethylphenyl)-4-(3-(pyridin-4-ylmethyl)ureido)benzamide] as the compound, how does the EC50 read?
The EC50 was 100 to 2000 nM.

For `CN(C)c1cccc(NC(=O)c2ccc(NC(=O)NCc3ccncc3)cc2)c1` [N-(3-(dimethylamino)phenyl)-4-(3-(pyridin-4-ylmethyl)ureido)benzamide], which EC50 is on record?
The EC50 was 100 to 2000 nM.

`O=C(NCc1ccncc1)Nc1ccc(S(=O)(=O)NCc2cccc(Cl)c2)cc1` [N-(3-Chloro-benzyl)-4-(3-pyridin-4-ylmethyl-ureido)-benzenesulfonamide] was tested. Which EC50 did it give?
Its EC50 is 100 to 2000 nM.

Which EC50 does the source give for `N#Cc1cccc(CNS(=O)(=O)c2ccc(NC(=O)NCc3ccncc3)cc2)c1` [N-(3-Cyano-benzyl)-4-(3-pyridin-4-ylmethyl-ureido)-benzenesulfonamide] here?
The EC50 was 100 to 2000 nM.

Which EC50 does the source give for `CN(C)c1cccc(CNS(=O)(=O)c2ccc(NC(=O)NCc3ccncc3)cc2)c1` [N-(3-Dimethylamino-benzyl)-4-(3-pyridin-4-ylmethyl-ureido)-benzenesulfonamide] here?
The EC50 was 100 to 2000 nM.

With `COc1cccc(CNS(=O)(=O)c2ccc(NC(=O)NCc3ccncc3)cc2)c1` [N-(3-Methoxy-benzyl)-4-(3-pyridin-4-ylmethyl-ureido)-benzenesulfonamide] as the compound, how does the EC50 read?
Its EC50 is 100 to 2000 nM.

For `COc1cccc(NS(=O)(=O)c2ccc(NC(=O)NCc3ccncc3)cc2)c1` [N-(3-Methoxy-phenyl)-4-(3-pyridin-4-ylmethyl-ureido)-benzenesulfonamide], which EC50 is on record?
The EC50 was 100 to 2000 nM.

How did the EC50 turn out when `COCCCNS(=O)(=O)c1ccc(NC(=O)NCc2ccncc2)cc1` [N-(3-Methoxy-propyl)-4-(3-pyridin-4-ylmethyl-ureido)-benzenesulfonamide] was run?
Its EC50 is 100 to 2000 nM.

Which EC50 does the source give for `Cc1cccc(CNS(=O)(=O)c2ccc(NC(=O)NCc3ccncc3)cc2)c1` [N-(3-Methyl-benzyl)-4-(3-pyridin-4-ylmethyl-ureido)-benzenesulfonamide] here?
The EC50 was 100 to 2000 nM.

Which EC50 does the source give for `O=C(NCc1ccncc1)Nc1ccc(C(=O)NCc2cccc(Cl)c2)cc1` [N-(3-chlorobenzyl)-4-(3-(pyridin-4-ylmethyl)ureido)benzamide] here?
The EC50 was > 20000 nM.

For `O=C(NCc1ccncc1)Nc1ccc(C(=O)Nc2cccc(Cl)c2)cc1` [N-(3-chlorophenyl)-4-(3-(pyridin-4-ylmethyl)ureido)benzamide], which EC50 is on record?
Its EC50 is 100 to 2000 nM.

Which EC50 does the source give for `CCOCCCNC(=O)c1ccc(NC(=O)NCc2ccncc2)cc1` [N-(3-ethoxypropyl)-4-(3-(pyridin-4-ylmethyl)ureido)benzamide] here?
The EC50 was 100 to 2000 nM.

`O=C(NCc1ccncc1)Nc1ccc(C(=O)NCc2cccc(F)c2)cc1` [N-(3-fluorobenzyl)-4-(3-(pyridin-4-ylmethyl)ureido)benzamide] was tested. Which EC50 did it give?
Its EC50 is > 20000 nM.

Which EC50 does the source give for `O=C(NCc1ccncc1)Nc1ccc(S(=O)(=O)NCc2cccc(F)c2)cc1` [N-(3-fluorobenzyl)-4-(3-(pyridin-4-ylmethyl)ureido)benzenesulfonamide] here?
The EC50 was 100 to 2000 nM.

`O=C(NCc1ccncc1)Nc1ccc(C(=O)Nc2cccc(F)c2)cc1` [N-(3-fluorophenyl)-4-(3-(pyridin-4-ylmethyl)ureido)benzamide] was tested. Which EC50 did it give?
Its EC50 is 100 to 2000 nM.

`COc1cccc(CNC(=O)c2ccc(NC(=O)NCc3ccncc3)cc2)c1` [N-(3-methoxybenzyl)-4-(3-(pyridin-4-ylmethyl)ureido)benzamide] was tested. Which EC50 did it give?
Its EC50 is > 20000 nM.

For `COc1cccc(NC(=O)c2ccc(NC(=O)NCc3ccncc3)cc2)c1` [N-(3-methoxyphenyl)-4-(3-(pyridin-4-ylmethyl)ureido)benzamide], which EC50 is on record?
Its EC50 is 100 to 2000 nM.

For `Cc1cccc(CNC(=O)c2ccc(NC(=O)NCc3ccncc3)cc2)c1` [N-(3-methylbenzyl)-4-(3-(pyridin-4-ylmethyl)ureido)benzamide], which EC50 is on record?
Its EC50 is > 20000 nM.

Which EC50 does the source give for `Cc1cc(NC(=O)c2ccc(NC(=O)NCc3ccncc3)cc2)on1` [N-(3-methylisoxazol-5-yl)-4-(3-(pyridin-4-ylmethyl)ureido)benzamide] here?
The EC50 was 2000 to 5000 nM.

How did the EC50 turn out when `Cc1nc(NS(=O)(=O)c2ccc(NC(=O)NCc3ccncc3)cc2)oc1C` [N-(4,5-Dimethyl-oxazol-2-yl)-4-(3-pyridin-4-ylmethyl-ureido)-benzenesulfonamide] was run?
The EC50 was > 20000 nM.

Which EC50 does the source give for `CN(C)Cc1ccc(CNS(=O)(=O)c2ccc(NC(=O)NCc3ccncc3)cc2)cc1` [N-(4-((dimethylamino)methyl)benzyl)-4-(3-(pyridin-4-ylmethyl)ureido)benzenesulfonamide] here?
Its EC50 is < 100 nM.

For `CN(C)c1ccc(NC(=O)c2ccc(NC(=O)NCc3ccncc3)cc2)cc1` [N-(4-(dimethylamino)phenyl)-4-(3-(pyridin-4-ylmethyl)ureido)benzamide], which EC50 is on record?
Its EC50 is 100 to 2000 nM.

How did the EC50 turn out when `COCc1ccc(NC(=O)c2ccc(NC(=O)NCc3ccncc3)cc2)cc1` [N-(4-(methoxymethyl)phenyl)-4-(3-(pyridin-4-ylmethyl)ureido)benzamide] was run?
The EC50 was > 20000 nM.

For `CN(C)c1ccc(CNS(=O)(=O)c2ccc(NC(=O)NCc3ccncc3)cc2)cc1` [N-(4-Dimethylamino-benzyl)-4-(3-pyridin-4-ylmethyl-ureido)-benzenesulfonamide], which EC50 is on record?
Its EC50 is 100 to 2000 nM.

`CS(=O)(=O)c1ccc(CNS(=O)(=O)c2ccc(NC(=O)NCc3ccncc3)cc2)cc1` [N-(4-Methanesulfonyl-benzyl)-4-(3-pyridin-4-ylmethyl-ureido)-benzenesulfonamide] was tested. Which EC50 did it give?
The EC50 was 100 to 2000 nM.

`COc1ccc(NS(=O)(=O)c2ccc(NC(=O)NCc3ccncc3)cc2)cc1` [N-(4-Methoxy-phenyl)-4-(3-pyridin-4-ylmethyl-ureido)-benzenesulfonamide] was tested. Which EC50 did it give?
Its EC50 is 100 to 2000 nM.

`COCc1ccc(CNS(=O)(=O)c2ccc(NC(=O)NCc3ccncc3)cc2)cc1` [N-(4-Methoxymethyl-benzyl)-4-(3-pyridin-4-ylmethyl-ureido)-benzenesulfonamide] was tested. Which EC50 did it give?
The EC50 was 100 to 2000 nM.

`Cc1ccnc(NS(=O)(=O)c2ccc(NC(=O)NCc3ccncc3)cc2)n1` [N-(4-Methyl-pyrimidin-2-yl)-4-(3-pyridin-4-ylmethyl-ureido)-benzenesulfonamide] was tested. Which EC50 did it give?
The EC50 was 100 to 2000 nM.

`O=C(NCc1ccncc1)Nc1ccc(C(=O)NCc2ccc(Cl)cc2)cc1` [N-(4-chlorobenzyl)-4-(3-(pyridin-4-ylmethyl)ureido)benzamide] was tested. Which EC50 did it give?
The EC50 was > 20000 nM.

For `O=C(NCc1ccncc1)Nc1ccc(S(=O)(=O)NCc2ccc(Cl)cc2)cc1` [N-(4-chlorobenzyl)-4-(3-(pyridin-4-ylmethyl)ureido)benzenesulfonamide], which EC50 is on record?
The EC50 was 100 to 2000 nM.

For `O=C(NCc1ccncc1)Nc1ccc(C(=O)Nc2ccc(Cl)cc2)cc1` [N-(4-chlorophenyl)-4-(3-(pyridin-4-ylmethyl)ureido)benzamide], which EC50 is on record?
Its EC50 is 100 to 2000 nM.

`N#Cc1ccc(CNS(=O)(=O)c2ccc(NC(=O)NCc3ccncc3)cc2)cc1` [N-(4-cyanobenzyl)-4-(3-(pyridin-4-ylmethyl)ureido)benzenesulfonamide] was tested. Which EC50 did it give?
The EC50 was 100 to 2000 nM.

`N#Cc1ccc(NC(=O)c2ccc(NC(=O)NCc3ccncc3)cc2)cc1` [N-(4-cyanophenyl)-4-(3-(pyridin-4-ylmethyl)ureido)benzamide] was tested. Which EC50 did it give?
The EC50 was 100 to 2000 nM.

Same assay, conditions: Table B-4; NAMPT activation, NMN formation

With `O=C(NCc1cn[nH]c1)Nc1ccc(S(=O)(=O)NCc2cccc(F)c2)cc1` [N-(3-Fluoro-benzyl)-4-[3-(1H-pyrazol-4-ylmethyl)-ureido]-benzenesulfonamide] as the compound, how does the EC50 read?
The EC50 was 100 to 2000 nM.

For `Cc1ccc(CNS(=O)(=O)c2ccc(NC(=O)NCc3cn[nH]c3)cc2)cc1` [N-(4-Methyl-benzyl)-4-[3-(1H-pyrazol-4-ylmethyl)-ureido]-benzenesulfonamide], which EC50 is on record?
Its EC50 is 100 to 2000 nM.
